Test results published in PubChem BioAssay AID1259407 (Chemical Carcinogenesis Research Information System (CCRIS), 2018).
Active and inactive are the calls of the source. No rule for the calls is given here.

System: CCRIS mutagenicity, Ames/micronucleus/aberration tests
Test: CCRIS mutagenicity studies
[1] = Test System: AMES SALMONELLA TYPHIMURIUM, Strain/Indicator: TA98, Metabolic Activation: NONE, Method: PREINCUBATION
[2] = Test System: AMES SALMONELLA TYPHIMURIUM, Strain/Indicator: TA100, Metabolic Activation: NONE, Method: PREINCUBATION
[3] = Test System: AMES SALMONELLA TYPHIMURIUM, Strain/Indicator: TA1535, Metabolic Activation: NONE, Method: PREINCUBATION
[4] = Test System: AMES SALMONELLA TYPHIMURIUM, Strain/Indicator: TA1537, Metabolic Activation: NONE, Method: PREINCUBATION
[5] = Test System: AMES SALMONELLA TYPHIMURIUM, Strain/Indicator: TA100, Metabolic Activation: RAT, LIVER, S-9, AROCLOR 1254, Method: STANDARD PLATE
[6] = Test System: AMES SALMONELLA TYPHIMURIUM, Strain/Indicator: TA98, Metabolic Activation: NONE, Method: STANDARD PLATE
[7] = Test System: AMES SALMONELLA TYPHIMURIUM, Strain/Indicator: TA98, Metabolic Activation: RAT, LIVER, S-9, AROCLOR 1254, Method: STANDARD PLATE
[8] = Test System: AMES SALMONELLA TYPHIMURIUM, Strain/Indicator: TA100, Metabolic Activation: NONE, Method: STANDARD PLATE
[9] = Test System: AMES SALMONELLA TYPHIMURIUM, Strain/Indicator: TA1535, Metabolic Activation: NONE, Method: STANDARD PLATE
[10] = Test System: AMES SALMONELLA TYPHIMURIUM, Strain/Indicator: TA1535, Metabolic Activation: RAT, LIVER, S-9, AROCLOR 1254, Method: STANDARD PLATE
[11] = Test System: AMES SALMONELLA TYPHIMURIUM, Strain/Indicator: TA1537, Metabolic Activation: NONE, Method: STANDARD PLATE
[12] = Test System: AMES SALMONELLA TYPHIMURIUM, Strain/Indicator: TA1537, Metabolic Activation: RAT, LIVER, S-9, AROCLOR 1254, Method: STANDARD PLATE

Structure (SMILES): COS(=O)(=O)OC
- mutagenic call (End Point: IN VITRO CHROMOSOMAL ABERRATIONS, Test System: CHL CELLS, Metabolic Activation: NONE): active; positive (structural changes)
- mutagenic call (End Point: IN VITRO CHROMOSOMAL ABERRATIONS, Test System: CHL CELLS, Metabolic Activation: RAT, LIVER, S-9, SODIUM PHENOBARBITAL AND 5,6-BENZOFLAVONE): active; positive (structural changes)
- mutagenic call (End Point: In vitro micronucleus, Test System: Chinese Hamster Ovary (CHO-WBL) cells, Metabolic Activation: None): active; positive (p<0.01)
- mutagenic call (Test System: AMES SALMONELLA TYPHIMURIUM, Strain/Indicator: TA98, Metabolic Activation: NONE): active; positive
- mutagenic call [1]: active; positive
- mutagenic call (Test System: AMES SALMONELLA TYPHIMURIUM, Strain/Indicator: TA98, Metabolic Activation: S-9): active; positive
- mutagenic call (Test System: AMES SALMONELLA TYPHIMURIUM, Strain/Indicator: TA100, Metabolic Activation: NONE): active; positive
- mutagenic call [2]: active; positive
- mutagenic call (Test System: AMES SALMONELLA TYPHIMURIUM, Strain/Indicator: TA100, Metabolic Activation: S-9): active; positive
- mutagenic call [3]: active; positive
- mutagenic call [4]: active; positive
- mutagenic call (Test System: AMES SALMONELLA TYPHIMURIUM, Strain/Indicator: TA1538, Metabolic Activation: NONE, Method: PREINCUBATION): active; positive
- mutagenic call (Test System: CHINESE HAMSTER V-79, Strain/Indicator: V-79/6-THIOGUANINE, Metabolic Activation: NONE, Method: FLASK ASSAY): inactive; negative
- mutagenic call (Test System: CHO/HGPRT, Strain/Indicator: CHO-K1-BH4, Metabolic Activation: NONE, Method: STANDARD PLATE): active; positive

Structure (SMILES): O[C@H]1C=Cc2c(ccc3cc4c5c(ccc4cc23)[C@H](O)[C@@H](O)C=C5)[C@@H]1O
- mutagenic call [5]: inactive; negative

Structure (SMILES): Cc1ccc2ccc3cc4ccccc4cc3c2c1
- mutagenic call (Test System: AMES SALMONELLA TYPHIMURIUM, Strain/Indicator: TA100, Metabolic Activation: RAT, INTACT HEPATOCYTES, AROCLOR 1254, Method: PREINCUBATION): inactive; negative
- mutagenic call (Test System: AMES SALMONELLA TYPHIMURIUM, Strain/Indicator: TA100, Metabolic Activation: RAT, NADPH-FORTIFIED HOMOGENIZED HEPATOCYTES, AROCLOR 1254, Method: PREINCUBATION): active; positive
- mutagenic call (Test System: AMES SALMONELLA TYPHIMURIUM, Strain/Indicator: TA100, Metabolic Activation: RAT, SONICATED HEPATOCYTES, AROCLOR 1254, Method: PREINCUBATION): active; positive

Structure (SMILES): O=C(O)/C=C/c1ccc(O)c(O)c1
- mutagenic call (Test System: AMES SALMONELLA TYPHIMURIUM, Strain/Indicator: TA98, Metabolic Activation: HAMSTER, LIVER, S-9, AROCLOR 1254, Method: STANDARD PLATE): inactive; negative
- mutagenic call [6]: inactive; negative
- mutagenic call [7]: inactive; negative
- mutagenic call (Test System: AMES SALMONELLA TYPHIMURIUM, Strain/Indicator: TA100, Metabolic Activation: HAMSTER, LIVER, S-9, AROCLOR 1254, Method: STANDARD PLATE): inactive; negative
- mutagenic call [8]: inactive; negative
- mutagenic call [5]: inactive; negative
- mutagenic call (Test System: AMES SALMONELLA TYPHIMURIUM, Strain/Indicator: TA1535, Metabolic Activation: HAMSTER, LIVER, S-9, AROCLOR 1254, Method: STANDARD PLATE): inactive; negative
- mutagenic call [9]: inactive; negative
- mutagenic call [10]: inactive; negative
- mutagenic call (Test System: AMES SALMONELLA TYPHIMURIUM, Strain/Indicator: TA1537, Metabolic Activation: HAMSTER, LIVER, S-9, AROCLOR 1254, Method: STANDARD PLATE): inactive; negative
- mutagenic call [11]: inactive; negative
- mutagenic call [12]: inactive; negative
- mutagenic call (Test System: AMES SALMONELLA TYPHIMURIUM, Strain/Indicator: TA1538, Metabolic Activation: HAMSTER, LIVER, S-9, AROCLOR 1254, Method: STANDARD PLATE): inactive; negative
- mutagenic call (Test System: AMES SALMONELLA TYPHIMURIUM, Strain/Indicator: TA1538, Metabolic Activation: NONE, Method: STANDARD PLATE): inactive; negative
- mutagenic call (Test System: AMES SALMONELLA TYPHIMURIUM, Strain/Indicator: TA1538, Metabolic Activation: RAT, LIVER, S-9, AROCLOR 1254, Method: STANDARD PLATE): inactive; negative
- mutagenic call (Test System: MOUSE LYMPHOMA, Strain/Indicator: L5178Y (TK+/TK-), Metabolic Activation: NONE, Method: SUSPENSION/PLATE): active; positive. reevaluation of results: positive
- mutagenic call (Test System: MOUSE LYMPHOMA, Strain/Indicator: L5178Y (TK+/TK-), Metabolic Activation: RAT, LIVER, S-9, AROCLOR 1254, Method: SUSPENSION/PLATE): inactive; negative; reevaluation of results: negative

Structure (SMILES): CCCCS(=O)(=O)n1ncc(Cl)c(Cl)c1=O
- mutagenic call [6]: inactive; negative
- mutagenic call [7]: inactive; negative
- mutagenic call [8]: active; positive
- mutagenic call [5]: active; positive
- mutagenic call [9]: inactive; negative
- mutagenic call [10]: active; positive
- mutagenic call [11]: inactive; negative
- mutagenic call [12]: inactive; negative

Structure (SMILES): CC(=O)OCC(O)CO (configuration not stated)
- mutagenic call (End Point: IN VITRO CHROMOSOMAL ABERRATIONS, Test System: CHO CELLS, Metabolic Activation: NONE): inactive; negative
- mutagenic call (End Point: IN VITRO CHROMOSOMAL ABERRATIONS, Test System: CHO CELLS, Metabolic Activation: RAT, LIVER, S-9, AROCLOR 1254): inactive; negative
- mutagenic call (Test System: AMES SALMONELLA TYPHIMURIUM, Strain/Indicator: TA98, Metabolic Activation: HAMSTER, LIVER, S-9, AROCLOR 1254, Method: PREINCUBATION): inactive; negative
- mutagenic call [1]: inactive; negative
- mutagenic call (Test System: AMES SALMONELLA TYPHIMURIUM, Strain/Indicator: TA98, Metabolic Activation: RAT, LIVER, S-9, AROCLOR 1254, Method: PREINCUBATION): inactive; negative
- mutagenic call (Test System: AMES SALMONELLA TYPHIMURIUM, Strain/Indicator: TA100, Metabolic Activation: HAMSTER, LIVER, S-9, AROCLOR 1254, Method: PREINCUBATION): inactive; negative
- mutagenic call [2]: inactive; negative
- mutagenic call (Test System: AMES SALMONELLA TYPHIMURIUM, Strain/Indicator: TA100, Metabolic Activation: RAT, LIVER, S-9, AROCLOR 1254, Method: PREINCUBATION): inactive; negative
- mutagenic call (Test System: AMES SALMONELLA TYPHIMURIUM, Strain/Indicator: TA1535, Metabolic Activation: HAMSTER, LIVER, S-9, AROCLOR 1254, Method: PREINCUBATION): active; positive
- mutagenic call [3]: active; positive
- mutagenic call (Test System: AMES SALMONELLA TYPHIMURIUM, Strain/Indicator: TA1535, Metabolic Activation: RAT, LIVER, S-9, AROCLOR 1254, Method: PREINCUBATION): active; positive
- mutagenic call (Test System: AMES SALMONELLA TYPHIMURIUM, Strain/Indicator: TA1537, Metabolic Activation: HAMSTER, LIVER, S-9, AROCLOR 1254, Method: PREINCUBATION): inactive; negative
- mutagenic call [4]: inactive; negative
- mutagenic call (Test System: AMES SALMONELLA TYPHIMURIUM, Strain/Indicator: TA1537, Metabolic Activation: RAT, LIVER, S-9, AROCLOR 1254, Method: PREINCUBATION): inactive; negative

Structure (SMILES): Cc1ccccc1N=Nc1ccc(N)c(C)c1N
- mutagenic call (Test System: AMES SALMONELLA TYPHIMURIUM, Strain/Indicator: TA100, Metabolic Activation: HUMAN, LIVER, S-9, Method: PREINCUBATION): active; positive
- mutagenic call (Test System: AMES SALMONELLA TYPHIMURIUM, Strain/Indicator: TA100, Metabolic Activation: RAT, LIVER, S-9, BETA-NAPHTHOFLAVONE, Method: PREINCUBATION): active; positive
- mutagenic call (Test System: AMES SALMONELLA TYPHIMURIUM, Strain/Indicator: TA100, Metabolic Activation: RAT, LIVER, S-9, PHENOBARBITAL, Method: PREINCUBATION): active; positive
- mutagenic call (Test System: AMES SALMONELLA TYPHIMURIUM, Strain/Indicator: TA100, Metabolic Activation: RAT, LIVER, S-9, Method: PREINCUBATION): active; positive
- mutagenic call (Test System: UDS RODENT HEPATOCYTES, Strain/Indicator: THY INCORP, Metabolic Activation: NONE, Method: AUTORADIOGRAPHY): active; positive
